62 compounds from patent EP1931657B1, “NOVEL HIGH AFFINITY QUINOLINE-BASED KINASE LIGANDS” (Merck Sharp & Dohme Corp., priority 2005, dated 2007) can be followed below.

This test has as its target CDK-2 (Homo sapiens, UniProt P24941). Description: CDK-2 inhibition, fluorescence polarization displacement assay. In general terms: Polarisation of emitted light reports the rotation of a fluorescent probe.

Description: Binding assays were performed in a 384 well Costar NBS coated plate. […] The concentration of BMS-Alexa Fluor647 was 50 nM. Serial dilutions of compounds were added to 12 wells. The final buffer concentration was 10 mM Hepes, pH 7.5, 150 mM NaCl, and 1 mM DTT. Samples were incubated at room temperature for 15 minutes and then read in an Analyst HT instrument using an excitation and emission wavelength of 580 and 680 nm, respectively.

With `COC(=O)[C@H](Cc1ccc(O)cc1)NC(=O)c1cc(C(=O)O)c2cc(-c3ccc(N(C)C)cc3)ccc2n1` [Compound 107], the concentration for half-maximal inhibition (IC50) – broadly, the point on the concentration scale where inhibition reaches its midpoint – was in the range of 1 to 40 µM. The figure for `CC(Cc1ccc(O)cc1)NC(=O)c1cc(C(=O)O)c2cc(-c3cccc(C(F)(F)F)c3)ccc2n1` (centres unmarked) [Compound 110] is 1 to 40 µM; for `COC(=O)[C@H](Cc1ccc(O)cc1)NC(=O)c1cc(C(=O)O)c2cc(-c3cc(C(F)(F)F)cc(C(F)(F)F)c3)ccc2n1` [Compound 112] it is 1 to 40 µM.

The compound `COC(=O)[C@H](Cc1ccc(O)cc1)NC(=O)c1cc(C(=O)O)c2cc(-c3ccc(OC)c(F)c3)ccc2n1` [Compound 113] displayed a half-inhibitory concentration (IC50) of 1 to 40 µM. The figure for `N#CC[C@H](Cc1ccc(O)cc1)NC(=O)c1cc(C(=O)O)c2cc(CCc3ccccc3)ccc2n1` [Compound 116] is 1 to 40 µM.

As to `COC[C@H](Cc1ccc(O)cc1)NC(=O)c1cc(C(=O)O)c2cc(C#Cc3ccccn3)ccc2n1` [Compound 125], the IC50 was 1 to 40 µM. Consider `COC[C@H](Cc1ccc(O)cc1)NC(=O)c1cc(C(=O)O)c2cc(COc3ccc(C(F)(F)F)cc3)ccc2n1` [Compound 129], for which the 50% inhibitory concentration (IC50) was 1 to 40 µM. The figure for `COC(=O)[C@H](Cc1ccc(O)cc1)NC(=O)c1cc(C(=O)O)c2cc(-c3cccnc3)ccc2n1` [Compound 130] is 1 to 40 µM.

The compound `COC(=O)[C@H](Cc1ccc(O)cc1)NC(=O)c1cc(C(=O)O)c2cc(-c3ccc4ccccc4c3)ccc2n1` [Compound 133] returned an IC50 of 1 to 40 µM.

Consider `COC(=O)[C@H](Cc1ccc(O)cc1)NC(=O)c1cc(C(=O)O)c2cc(-c3ccc(F)cc3)ccc2n1` [Compound 135], for which the half-inhibitory concentration (IC50) lay within 1 to 40 µM.

As to `COC[C@H](Cc1ccc(O)cc1)NC(=O)c1cc(NS(=O)(=O)C(C)(C)C)c2cc(-c3cccc(N4CCOCC4)c3)ccc2n1` [Compound 136], the IC50 was 1 to 40 µM.

For `COC[C@H](Cc1ccc(O)cc1)NC(=O)c1cc(C(=O)O)c2cc(C#Cc3cccnc3)ccc2n1` [Compound 137], the IC50 fell in the range of 1 to 40 µM. The figure for `COC[C@H](Cc1ccc(O)cc1)NC(=O)c1cc(NS(=O)(=O)C(C)(C)C)c2cc(-c3cccc(COc4cccnc4)c3)ccc2n1` [Compound 139] is 1 to 40 µM; for `COC[C@H](Cc1ccc(O)cc1)NC(=O)c1cc(C(=O)O)c2cc(-c3cccc(COc4cccnc4)c3)ccc2n1` [Compound 141] it is 1 to 40 µM; for `COC(=O)[C@H](Cc1ccc(O)cc1)NC(=O)c1cc(C(=O)O)c2cc(-c3ccc(N)cc3)ccc2n1` [Compound 145] it is 1 to 40 µM. In the case of `COC[C@H](Cc1ccc(O)cc1)NC(=O)c1cc(C(=O)O)c2cc(COc3ccc(Cl)c(F)c3)ccc2n1` [Compound 146], the half-inhibitory concentration (IC50) lay within 1 to 40 µM. The figure for `COC[C@H](Cc1ccc(O)cc1)NC(=O)c1cc(C(=O)O)c2cc(C#Cc3ccccc3C(F)(F)F)ccc2n1` [Compound 148] is 1 to 40 µM; for `COC(=O)[C@H](Cc1ccc(O)cc1)NC(=O)c1cc(C(=O)O)c2cc(-c3ccccc3OC)ccc2n1` [Compound 151] it is 1 to 40 µM. The figure for `COC[C@H](Cc1ccc(O)cc1)NC(=O)c1cc(C(=O)O)c2cc(C#CCCC#N)ccc2n1` [Compound 152] is 1 to 40 µM. The figure for `COC(=O)C(Cc1ccc(O)cc1)NC(=O)c1cc(C(=O)NC(C)(C)C(=O)O)c2cc(-c3cccs3)ccc2n1` (centres unmarked) [Compound 154] is greater than 40 µM; for `COC(=O)[C@H](Cc1c[nH]cn1)NC(=O)c1cc(C(=O)O)c2cc(-c3cccs3)ccc2n1` [Compound 156] it is greater than 40 µM; for `COC(=O)[C@H](Cc1ccc(O)cc1)NC(=O)c1cc(C(=O)O)c2cc(-c3ccc(S(C)(=O)=O)cc3)ccc2n1` [Compound 157] it is greater than 40 µM.

In the case of `COC(=O)[C@H](Cc1ccc(O)cc1)NC(=O)c1cc(C(=O)O)c2cc(-c3cccc(NC(C)=O)c3)ccc2n1` [Compound 158], the 50% inhibitory concentration (IC50) is greater than 40 µM. The figure for `COC(=O)[C@H](Cc1ccc(O)cc1)NC(=O)c1cc(C(=O)O)c2cc(Cc3ccccc3)ccc2n1` [Compound 159] is greater than 40 µM. The figure for `COC(=O)[C@H](Cc1cccnc1)NC(=O)c1cc(C(=O)O)c2cc(-c3cccc(C(F)(F)F)c3)ccc2n1` [Compound 164] is greater than 40 µM; for `COC(=O)[C@H](Cc1ccc(OC(C)(C)C)cc1)NC(=O)c1cc(C(=O)O)c2cc(-c3cccc(C(F)(F)F)c3)ccc2n1` [Compound 166] it is greater than 40 µM; for `COC(=O)[C@H](Cc1ccc(OC)cc1)NC(=O)c1cc(S(C)(=O)=O)c2cc(-c3cccc(C(F)(F)F)c3)ccc2n1` [Compound 171] it is greater than 40 µM. `COC[C@H](Cc1ccc(O)cc1)NC(=O)c1cc(S(C)(=O)=O)c2cc(-c3cccc(C(F)(F)F)c3)ccc2n1` [Compound 172]: the IC50 was greater than 40 µM. The figure for `COC[C@H](Cc1ccc(O)cc1)NC(=O)c1cc(C(=O)OCCO)c2cc(-c3cccc(C(F)(F)F)c3)ccc2n1` [Compound 173] is greater than 40 µM; for `COC[C@H](Cc1ccc(O)cc1)NC(=O)c1cc(C(=O)OCC(O)CO)c2cc(-c3cccc(C(F)(F)F)c3)ccc2n1` (some centres unmarked) [Compound 174] it is greater than 40 µM. `CCCCOC(=O)c1cc(C(=O)N[C@H](COC)Cc2ccc(O)cc2)nc2ccc(-c3cccc(C(F)(F)F)c3)cc12` [Compound 177] yielded an IC50 greater than 40 µM. The figure for `COC[C@H](Cc1ccc(O)cc1)NC(=O)c1cc(C(=O)O)c2cc(COc3ccccc3)ccc2n1` [Compound 180] is greater than 40 µM; for `NC[C@H](Cc1ccc(O)cc1)NC(=O)c1cc(C(=O)O)c2cc(CCc3ccccc3)ccc2n1` [Compound 181] it is greater than 40 µM; for `NCC[C@H](Cc1ccc(O)cc1)NC(=O)c1cc(C(=O)O)c2cc(CCc3ccccc3)ccc2n1` [Compound 182] it is greater than 40 µM.

Take `CCN(CC)Cc1cccc(-c2ccc3nc(C(=O)N[C@H](COC)Cc4ccc(O)cc4)cc(C(=O)O)c3c2)c1` [Compound 183]: the IC50 is greater than 40 µM. `COC[C@H](Cc1ccc(O)cc1)NC(=O)c1cc(C(=O)O)c2cc(C#CCN(C)C)ccc2n1` [Compound 185]: the IC50 is greater than 40 µM.

The compound `COC[C@H](Cc1ccc(O)cc1)NC(=O)c1cc(C(=O)O)c2cc(CCc3cccnc3)ccc2n1` [Compound 187] displayed an IC50 greater than 40 µM. `COC[C@H](Cc1ccc(O)cc1)NC(=O)c1cc(C(=O)O)c2cc(/C=C/c3cccnc3)ccc2n1` [Compound 188] registered a half-inhibitory concentration (IC50) greater than 40 µM. `COC[C@H](Cc1ccc(O)cc1)NC(=O)c1cc(C(=O)O)c2cc(-c3cccc(CN(C)C)c3)ccc2n1` [Compound 190]: the IC50 is greater than 40 µM. The figure for `COC[C@H](Cc1ccc(O)cc1)NC(=O)c1cc(C(=O)O)c2cc(-c3cccc(CN(C)CCO)c3)ccc2n1` [Compound 191] is greater than 40 µM; for `COC[C@H](Cc1ccc(O)cc1)NC(=O)c1cc(C(=O)O)c2cc(-c3cccc(CNC(CO)CO)c3)ccc2n1` [Compound 197] it is greater than 40 µM; for `COC[C@H](Cc1ccc(O)cc1)NC(=O)c1cc(C(=O)O)c2cc(COc3ccc(OC)cc3)ccc2n1` [Compound 200] it is greater than 40 µM.

In turn, `COC[C@H](Cc1ccc(O)cc1)NC(=O)c1cc(C(=O)O)c2cc(COc3ccccc3OC)ccc2n1` [Compound 201] registered an IC50 greater than 40 µM.

Compound `COC[C@H](Cc1ccc(O)cc1)NC(=O)c1cc(C(=O)O)c2cc(COc3ccc(O)cc3)ccc2n1` [Compound 202] returned a half-maximal inhibitory concentration (IC50) greater than 40 µM. Regarding `COC[C@H](Cc1ccc(O)cc1)NC(=O)c1cc(C(=O)O)c2cc(C#CCCCCN)ccc2n1` [Compound 203], the IC50 is greater than 40 µM. The figure for `COC[C@H](Cc1ccc(O)cc1)NC(=O)c1cc(C(=O)O)c2cc(C#Cc3ccncc3)ccc2n1` [Compound 204] is greater than 40 µM; for `COC[C@H](Cc1ccc(O)cc1)NC(=O)c1cc(C(=O)O)c2cc(C#CCN3CCS(=O)(=O)CC3)ccc2n1` [Compound 205] it is greater than 40 µM; for `CCOC(=O)C#Cc1ccc2nc(C(=O)N[C@H](COC)Cc3ccc(O)cc3)cc(C(=O)O)c2c1` [Compound 206] it is greater than 40 µM. With `COC[C@H](Cc1ccc(O)cc1)NC(=O)c1cc(C(=O)O)c2cc(COc3ccccn3)ccc2n1` [Compound 207], the IC50 was greater than 40 µM. The figure for `COC[C@H](Cc1ccc(O)cc1)NC(=O)c1cc(C(=O)O)c2cc(CSc3ccncc3)ccc2n1` [Compound 208] is greater than 40 µM; for `COC[C@H](Cc1ccc(O)cc1)NC(=O)c1cc(C(=O)O)c2cc(CSc3ccccn3)ccc2n1` [Compound 210] it is greater than 40 µM; for `COC[C@H](Cc1ccc(O)cc1)NC(=O)c1cc(C(=O)O)c2cc(CN(C)C)ccc2n1` [Compound 211] it is greater than 40 µM.

`COC[C@H](Cc1ccc(O)cc1)NC(=O)c1cc(-n2cccn2)c2cc(-c3cccc(Cn4cccn4)c3)ccc2n1` [Compound 213] yielded a half-inhibitory concentration (IC50) greater than 40 µM. The figure for `COC[C@H](Cc1ccc(O)cc1)NC(=O)c1cc(C(=O)OCCO)c2cc(/C=C/c3ccc(Cl)cc3)ccc2n1` [Compound 214] is greater than 40 µM; for `COC[C@H](Cc1ccc(O)cc1)NC(=O)c1cc(C(=O)OCC(O)CO)c2cc(/C=C/c3ccc(Cl)cc3)ccc2n1` (some centres unmarked) [Compound 215] it is greater than 40 µM.

`CCOC(=O)c1cc(C(=O)N[C@H](COC)Cc2ccc(O)cc2)nc2ccc(/C=C/c3ccc(Cl)cc3)cc12` [Compound 217] yielded an IC50 greater than 40 µM.

In turn, `COC[C@H](Cc1ccc(O)cc1)NC(=O)c1cc(C(=O)OCCN(C)C)c2cc(/C=C/c3ccc(Cl)cc3)ccc2n1` [Compound 218] came in with an IC50 greater than 40 µM. Turning to `COC[C@H](Cc1ccc(O)cc1)NC(=O)c1cc(C(=O)O)c2cc(C#CCCCCN3CCN(C)CC3)ccc2n1` [Compound 219], the 50% inhibitory concentration (IC50) was greater than 40 µM. The figure for `COC[C@H](Cc1ccc(O)cc1)NC(=O)c1cc(C(=O)O)c2cc(C#CCCCN3CCN(C)CC3)ccc2n1` [Compound 220] is greater than 40 µM. The figure for `CC(C)(C)S(=O)(=O)Nc1cc(C(=O)N[C@H](CN)Cc2ccc(O)cc2)nc2ccc(C#Cc3ccccn3)cc12` [Compound 225] is greater than 40 µM; for `COC(=O)[C@H](Cc1ccc(O)cc1)NC(=O)c1cc(C(=O)O)c2cc(-c3cncnc3)ccc2n1` [Compound 226] it is greater than 40 µM; for `COC(=O)[C@H](Cc1ccc(O)cc1)NC(=O)c1cc(C(N)=O)c2cc(-c3cccs3)ccc2n1` [Compound 227] it is greater than 40 µM.
